Results from the supplement of paper PMC11061612.

Columns and labels:
[1] = test system: MES-SA (Other Solid Carcinomas); assay: combination Emax (second highest fraction inhibited in the dose matrix, 72 h); higher = more inhibition; extreme values may be limits of the assay
Method in brief: (§1)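 Cell lines in DMEM/F12 or RPMI with 10% FBS were plated in 1536-well plates, held 24 hours at 37°C, 5% CO2, then given two-drug dose matrices for 72 hours (DMSO typically 0.2%). Viability was read by CellTiter-Glo 2.0 luminescence and scaled as inhibition from 0 (vehicle wells) to 1 (blank wells). Combination Emax is the second-highest inhibition in the matrix; Bliss excess is observed combination effect minus expected EA + EB − EA·EB, EA and EB being single-agent effects.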

H4 (Low Grade Glioma) = assay: as above
Method in brief: as §1

[2] = test system: EKVX (Non-Small Cell Lung Carcinoma); assay: as above
Method in brief: as §1

[3] = test system: KG-1 (Acute Myeloid Leukemia); assay: as above
Method in brief: as §1

[4] = test system: SK-UT-1 (Other Solid Carcinomas); assay: as above
Method in brief: as §1

[5] = test system: HOP-92 (Non-Small Cell Lung Carcinoma); assay: as above
Method in brief: as §1

HuO9 (Osteosarcoma) = assay: Bliss excess, mean over the matrix (fraction); higher = more synergy
Method in brief: as §1

[6] = test system: MEG-01 (Chronic Myelogenous Leukemia); assay: as above
Method in brief: as §1

[7] = test system: KG-1 (Acute Myeloid Leukemia); assay: as above
Method in brief: as §1

EW-22 (Ewing's Sarcoma) = assay: as above
Method in brief: as §1

SK-MEL-1 (Melanoma) = assay: as above
Method in brief: as §1

[8] = test system: PA-TU-8902 (Pancreatic Carcinoma); assay: as above
Method in brief: as §1

[9] = test system: DOK (Oral Cavity Carcinoma); assay: as above
Method in brief: as §1

CS1 (Chondrosarcoma) = assay: as above
Method in brief: as §1

[10] = test system: HOP-92 (Non-Small Cell Lung Carcinoma); assay: as above
Method in brief: as §1

[11] = test system: ETK-1 (Biliary Tract Carcinoma); assay: as above
Method in brief: as §1

HCC38 (Breast Carcinoma) = assay: as above
Method in brief: as §1

[12] = test system: JHH-6 (Hepatocellular Carcinoma); assay: as above
Method in brief: as §1

[13] = test system: BICR78 (Oral Cavity Carcinoma); assay: as above
Method in brief: as §1

[14] = test system: SW948 (Colorectal Carcinoma); assay: as above
Method in brief: as §1
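For Bliss excess, mean over the matrix in this document: after 72 h of two-drug dosing.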

`CCN(CCO)CCCOc1ccc2c(Nc3cc(CC(=O)Nc4cccc(F)c4)[nH]n3)ncnc2c1` [AZD2811] + O=C(c1cc(Cc2n[nH]c(=O)c3ccccc23)ccc1F)N1CCN(C(=O)C2CC2)CC1 [Olaparib] (first compound max 1 µM, 7x7, partner max 10 µM) was tested, and the “combination Emax” value [1] was 0.519, the “combination Emax” value (H4 (Low Grade Glioma)) was 0.558 and the “combination Emax” value [2] was 0.159. For the same molecule, the “combination Emax” value [3] was 0.37, the “combination Emax” value [4] was 0.289 and the “combination Emax” value [5] was 0.363. It also gave a Bliss excess (HuO9 (Osteosarcoma)) of 0.0215, a Bliss excess [6] of -0.0628 and a Bliss excess [7] of 0.0382. It also gave a Bliss excess (EW-22 (Ewing's Sarcoma)) of -0.0612, a Bliss excess (SK-MEL-1 (Melanoma)) of -0.0325 and a Bliss excess [8] of 0.0081. It also gave a Bliss excess [9] of -0.0086, a Bliss excess (CS1 (Chondrosarcoma)) of -0.0515 and a Bliss excess [10] of -0.0048. For the same molecule, the Bliss excess [11] was 0.0049, the Bliss excess (HCC38 (Breast Carcinoma)) was -0.003 and the Bliss excess [12] was -0.0127. It also gave a Bliss excess [13] of -0.0114.
In the case of `CN(CCO)CC[C@H](CSc1ccccc1)Nc1ccc(S(=O)(=O)NC(=O)c2ccc(N3CCC([C@@H](O)c4ccccc4-c4ccc(Cl)cc4)CC3)cc2)cc1S(=O)(=O)C(F)(F)F` [AZD4320] + C1CN(CCC1(C(=O)N[C@@H](CCO)C2=CC=C(C=C2)Cl)N)C3=NC=NC4=C3C=CN4 [Capivasertib] (first compound max 1 µM, 7x7, partner max 3 µM), the “combination Emax” value [1] is reported as 0.282, the “combination Emax” value (H4 (Low Grade Glioma)) is reported as 0.404 and the “combination Emax” value [2] is reported as 0.269. The “combination Emax” value [3] was 0.929, the “combination Emax” value [4] was 0.226 and the “combination Emax” value [5] was 0.891. It also gave a Bliss excess (HuO9 (Osteosarcoma)) of 0.0355, a Bliss excess [6] of -0.0223 and a Bliss excess [7] of 0.0226. The Bliss excess (EW-22 (Ewing's Sarcoma)) was -0.0341, the Bliss excess (SK-MEL-1 (Melanoma)) was -0.0281 and the Bliss excess [8] was -0.0448. For the same molecule, the Bliss excess [9] was -0.0554, the Bliss excess (CS1 (Chondrosarcoma)) was -0.022 and the Bliss excess [10] was -0.038. For the same molecule, the Bliss excess [11] was -0.0305, the Bliss excess (HCC38 (Breast Carcinoma)) was 0.0057 and the Bliss excess [14] was -0.0497. The Bliss excess [12] was -0.0437 and the Bliss excess [13] was -0.0097.
`Cc1c2c(nn1C)CSCc1cc(n(C)n1)CSc1cc(c3ccccc3c1)OCCCc1c(C(=O)O)n(C)c3c-2c(Cl)ccc13` [AZD5991] + C[C@@H]1COCCN1C2=NC(=NC(=C2)C3(CC3)[S@](=N)(=O)C)C4=C5C=CNC5=NC=C4 [AZD6738] (first compound max 1 µM, 7x7, partner max 10 µM) was tested, and the “combination Emax” value [1] was 0.762, the “combination Emax” value (H4 (Low Grade Glioma)) was 0.813 and the “combination Emax” value [2] was 0.29. The “combination Emax” value [3] was 1, the “combination Emax” value [4] was 0.801 and the “combination Emax” value [5] was 0.723. For the same molecule, the Bliss excess (HuO9 (Osteosarcoma)) was 0.0259, the Bliss excess [6] was -0.0227 and the Bliss excess [7] was 0.0155. It also gave a Bliss excess (EW-22 (Ewing's Sarcoma)) of 0.0236, a Bliss excess (SK-MEL-1 (Melanoma)) of -0.0255 and a Bliss excess [8] of 0.0111. It also gave a Bliss excess (CS1 (Chondrosarcoma)) of 0.0029, a Bliss excess [10] of 0.0003 and a Bliss excess [11] of 0.0015. It also gave a Bliss excess (HCC38 (Breast Carcinoma)) of 0.0528, a Bliss excess [14] of 0.0387 and a Bliss excess [12] of -0.079. The Bliss excess [13] was -0.0327.
`Cc1c2c(nn1C)CSCc1cc(n(C)n1)CSc1cc(c3ccccc3c1)OCCCc1c(C(=O)O)n(C)c3c-2c(Cl)ccc13` [AZD5991] + Cc1cc2ncnn2cc1Nc1ncc2c(n1)n(C1CCOCC1)c(=O)n2C [AZD7648] (first compound max 1 µM, 7x7, partner max 10 µM) was tested, and the “combination Emax” value [1] was 0.221, the “combination Emax” value (H4 (Low Grade Glioma)) was 0.378 and the “combination Emax” value [2] was 0.303. The “combination Emax” value [3] was 1, the “combination Emax” value [4] was 0.282 and the “combination Emax” value [5] was 0.448. It also gave a Bliss excess (HuO9 (Osteosarcoma)) of -0.018, a Bliss excess [6] of -0.0157 and a Bliss excess [7] of -0.0136. It also gave a Bliss excess (EW-22 (Ewing's Sarcoma)) of -0.041, a Bliss excess (SK-MEL-1 (Melanoma)) of -0.0152 and a Bliss excess [9] of 0.0115. For the same molecule, the Bliss excess (CS1 (Chondrosarcoma)) was -0.0282, the Bliss excess [10] was -0.0332 and the Bliss excess [11] was -0.0466. The Bliss excess (HCC38 (Breast Carcinoma)) was -0.0418, the Bliss excess [14] was -0.0328 and the Bliss excess [12] was -0.0622. The Bliss excess [13] was -0.0172.
For `C[C@@H]1COCCN1c1cc(C2([S@](C)(=N)=O)CC2)nc(-c2ccnc3[nH]ccc23)n1` [AZD6738] + O=C(c1cc(Cc2n[nH]c(=O)c3ccccc23)ccc1F)N1CCN(C(=O)C2CC2)CC1 [Olaparib] (first compound max 10 µM, 7x7, partner max 10 µM), the “combination Emax” value [1] was 0.643, the “combination Emax” value (H4 (Low Grade Glioma)) was 0.791 and the “combination Emax” value [2] was 0.32. For the same molecule, the “combination Emax” value [3] was 0.739, the “combination Emax” value [4] was 0.821 and the “combination Emax” value [5] was 0.667. For the same molecule, the Bliss excess (HuO9 (Osteosarcoma)) was -0.0166, the Bliss excess [6] was -0.0458 and the Bliss excess [7] was -0.0154. For the same molecule, the Bliss excess (EW-22 (Ewing's Sarcoma)) was 0.02, the Bliss excess (SK-MEL-1 (Melanoma)) was -0.0012 and the Bliss excess [8] was -0.0251. The Bliss excess [9] was 0.0048, the Bliss excess (CS1 (Chondrosarcoma)) was 0.0318 and the Bliss excess [10] was 0.0158. For the same molecule, the Bliss excess [11] was 0.0197, the Bliss excess (HCC38 (Breast Carcinoma)) was 0.0122 and the Bliss excess [12] was -0.0039. It also gave a Bliss excess [13] of -0.0431.
With `Cc1cc2ncnn2cc1Nc1ncc2c(n1)n(C1CCOCC1)c(=O)n2C` [AZD7648] + O=C(c1cc(Cc2n[nH]c(=O)c3ccccc23)ccc1F)N1CCN(C(=O)C2CC2)CC1 [Olaparib] (first compound max 10 µM, 7x7, partner max 10 µM) the “combination Emax” value [1] was 0.637, the “combination Emax” value (H4 (Low Grade Glioma)) was 0.585 and the “combination Emax” value [2] was 0.147. For the same molecule, the “combination Emax” value [3] was 0.131, the “combination Emax” value [4] was 0.158 and the “combination Emax” value [5] was 0.292. For the same molecule, the Bliss excess (HuO9 (Osteosarcoma)) was 0.0105, the Bliss excess [6] was -0.0086 and the Bliss excess [7] was -0.0312. For the same molecule, the Bliss excess (EW-22 (Ewing's Sarcoma)) was -0.0664, the Bliss excess (SK-MEL-1 (Melanoma)) was 0.0039 and the Bliss excess [8] was -0.0237. The Bliss excess [9] was -0.0334, the Bliss excess (CS1 (Chondrosarcoma)) was -0.0193 and the Bliss excess [10] was -0.0144. For the same molecule, the Bliss excess [11] was 0.0223, the Bliss excess (HCC38 (Breast Carcinoma)) was -0.0481 and the Bliss excess [12] was -0.0516. For the same molecule, the Bliss excess [13] was -0.0056.
`CCc1c2c(nc3ccc(O)cc13)-c1cc3c(c(=O)n1C2)COC(=O)[C@]3(O)CC` [SN-38] + O=C(c1cc(Cc2n[nH]c(=O)c3ccccc23)ccc1F)N1CCN(C(=O)C2CC2)CC1 [Olaparib] (first compound max 0.3 µM, 7x7, partner max 10 µM) was tested, and the “combination Emax” value (H4 (Low Grade Glioma)) was 0.938, the “combination Emax” value [2] was 0.3 and the “combination Emax” value [4] was 0.973. For the same molecule, the Bliss excess (HuO9 (Osteosarcoma)) was 0.0687, the Bliss excess [6] was 0.026 and the Bliss excess (EW-22 (Ewing's Sarcoma)) was 0.0213. For the same molecule, the Bliss excess (SK-MEL-1 (Melanoma)) was 0.0387, the Bliss excess [8] was 0.086 and the Bliss excess [9] was 0.0284. It also gave a Bliss excess (CS1 (Chondrosarcoma)) of 0.0141, a Bliss excess [11] of 0.0825 and a Bliss excess (HCC38 (Breast Carcinoma)) of 0.0331. For the same molecule, the Bliss excess [14] was 0.0993, the Bliss excess [12] was 0.032 and the Bliss excess [13] was 0.0587.
